Assay results as given in patent US6827926B2, “Metallotetrapyrrolic photosensitizing agents for use in photodynamic therapy” (Miravant Pharmaceuticals, Inc., priority 2001, dated 2004).
Like-named read-outs stand apart in the source and are kept apart here.

Key:
[1] = system: normal skin of CD Hairless male rats; format: in vivo, rat
Text: We tested metallo- and metal-free tetrapyrroles systemically (see following section) for normal skin response in relation to the pharmacodynamic distribution of the photosensitizers in CD hairless rats. The skin of CD hairless rats are poorly developed, often referred to as hyperkeratotic, with various sized cystic hair follicles containing concentric lamellar accumulations of keratinaceous material, which are often associated with enlarged sebaceous glands. It quickly became apparent that gallium tetrapyrroles induced a marked clearing of the hyperkeratotic lesions in the treatment areas on the hairless rats. In fact, this clearing could be induced without necrosis of the skin. No other metallotetrapyrrole type produced such effects. This observation led us to assess the metallotetrapyrrolic compounds for skin restructuring effects both topically and systemically and for their ability to reduce hair growth in the following animal models.
Photosensitizer normal skin response as well as skin healing response, was evaluated using CD Hairless male rats. Photosensitizers were administered in an liposomal egg yolk phospholipid formulation at 1, 1.5 and 2 μmol/kg body weight formulation per dose group as a single bolus intravenous injection given through a marginal tail vein using a 27 gauge needle and a 1 cc tuberculin syringe. Normal skin responses were evaluated by irradiating several spots on the skin of the rat with a 532 nm laser (150 mW/cm^2, 150J, 1 cm diameter) at 1, 6, 24, 48, and 96 hrs post injection. Normal skin responses were evaluated and documented. The time at which the last spot is observed at the concentration injected is reported in the far right hand column in Tables 3, 4, 5 and 6. Skin samples were taken for histological evaluation at days 1, 10, 20 and 22 post light treatment. Rats were housed under normal lighting and all study procedures involving the test article were conducted under light filtered through blue and green Roscolox light filters to prevent photoactivation or degradation of the drug.

[2] = system: normal uninjured rat carotid arteries (medial and adventitial cell populations); assay: In vivo rat carotid artery acellularity after PDT; set-up: species or system Sprague Dawley rats; settings: for Max % rat Artery Accelularity: Table 3, 50 J/cm^2, 3 days post treatment; for Max % rat Artery Accelularity / Max % Rat Artery Acceluarity / Max % Rat Artery Accelularity: drug dose 1 μMol; for Max % Rat Artery Acceluarity: Table 5; for Max % Rat Artery Accelularity: Table 4, 575 nm (Pt 532 nm); for accelularity in rat artery at a four hour treatment point: 4 hrs post administration
Method: The acute effects of metallated photosensitizers, in response to light activation, to cause depletion of cell populations in the medial and adventitial layers of vessels was measured in normal uninjured rat carotid arteries. […] Shortly before the light treatment, the rats were anaesthetized with 3.5% isoflurane (Abbott Laboratories, IL, USA) and the femoral region of the right leg was shaved and cleaned. […] A direct arteriotomy was performed and a light balloon catheter ([…] Medical Technologies, Inc) was introduced into the vessel and advanced retrogradely into a non-manipulated region of the left common carotid artery via the abdominal aorta. […] After light treatment and removal of the catheter, the right femoral artery was tied off and the skin wound was closed. Rats were sacrificed three days post treatment as this corresponds to the known peak time that vascular cells, e.g., VSMC and myofibroblasts, proliferate and migrate in response to an injury. The area spanning both left and right carotid arteries and surrounding tissue was harvested, fixed, embedded in paraffin and sectioned. The tissues were stained with Hematoxylin and Eosin (Fisher Scientific, PA) and examined by light microscopy to histologically assess the cell population density in the medial and adventitial layers of the PDT-treated vessel wall. […] Metallo azaporphyrins with Ga, Zn, Al, Sn were excited at 575 nm, while Pt azaporphyrins were excited at 532 nm.

[3] = system: V79 (Chinese Hamster Lung Fibroblasts) cells; assay: In vitro cytotoxicity assay (light EC50, Alamar blue); format: cell-based
In short: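 V79 cells in phenol-free 5% FBS/DMEM exposed 24 h to photosensitizer at final 0.01–5.0 μM, six replicates, then washed and light-treated, with a dark plate as control. Survival by Alamar blue after 24 h dark incubation, read at 570/600 nm.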

[4] = Table 3 porphyrins, 24 h drug incubation, 532 nm, 1.25 J/cm^2, read-out: In Vitro EC50 Light
[5] = Table 5 plant derived gallium porphyrins, light, read-out: In Vitro EC(50)
[6] = Table 4, time of last skin spot observed post injection, 1 μmol
[7] = Table 4 azaporphyrins, 575 nm (Pt azaporphyrins 532 nm), 1.25 J/cm^2, read-out: In Vitro EC(50)

| Compound | Normal skin Response (1 μmol) ([1]; rat, in vivo) [h] | Max % rat Artery Accelularity [2] [%] | EC50 [3, 4] [nM] | Max % Rat Artery Accelularity [2] [%] | EC50 [3, 7] [nM] | other results |
| --- | --- | --- | --- | --- | --- | --- |
| CCC1=C(C)c2cc3[n-]c(cc4nc(cc5[n-]c(cc1n2)c(C)c5CC)C(C)=C4CCCCC(=O)[O-])c(CCCCC(=O)[O-])c3C.[Ga+3].[Na+].[Na+].[OH-] [Example 114, Gallium Hydroxy 8,13-diethyl-3,7,12,17-tetramethylporphyrin-2,18-di(pentanoic acid sodium salt)] | 24 | 20 | 2300 |  |  |  |
| C=Cc1c(C)c2cc3nc(c(CC(=O)OC)c4[n-]c(cc5nc(cc1[n-]2)C(C)=C5CC)c(C)c4C(=O)NC)C(CCC(=O)OC)=C3C.[Cl-].[Ga+3] [Example 14, Gallium Chloride Chloroporphyrin e6 Dimethyl Ester 12-methylamide] | 6 |  |  |  |  | Max % Rat Artery Acceluarity [2]: 65%; EC50 [3, 5]: 290 nM |
| Gallium Chloride Mesoporphyrin III Dimethyl Ester [Example 115] | 6 | 10 | 300 |  |  |  |
| CCC1=C(CC)C2=Nc3c(CC)c(CC)c4[n]3[Ga]([Cl])[n]3c(c(C)c(CCCC(=O)OC)c3=CC3=NC(=C4)C(C)=C3CCCC(=O)OC)=CC1=N2 [Example 108, Gallium Chloride 7,8,12,13-tetraethyl-12,17-dimethyl-10-azaporphyrin-2,18-di(butanoic acid methyl ester)] |  |  |  | 55 | 400 | Normal skin Response (1 μmol) [1, 6]: 24 h |
| CCOC(=O)CCC1=C(C)C2=Cc3c(CC)c(CC)c4[n]3[Ga-2]35([Cl])[n]6c(c(C)c(CCC(=O)OCC)c6=CC1=[N+]23)=CC1=[N+]5C(=N4)C(CC)=C1CC [Example 89, Gallium Chloride 7,8,12,13-tetraethyl-12,17-dimethyl-10-azaporphyrin-2,18-di(propionic acid ethyl ester)] | 24 |  |  | 60 | 400 |  |
| CCC1=C(CC)C2=[N+]3C1=Nc1c(CC)c(CC)c4[n]1[In-2]31([Cl])[n]3c(c(C)c(CCC(=O)OC)c3=CC3=[N+]1C(=C4)C(C)=C3CCC(=O)OC)=C2 [Example 83, Indium Chloride 7,8,12,13-tetraethyl-12,17-dimethyl-10-azaporphyrin-2,18-di(propionic acid methyl ester)] | 48 |  |  | 50 | 30 |  |
| COC(=O)CCC1=C(C)c2cc3[n-]c(cc4nc(cc5[n-]c(cc1n2)c(CCC(=O)OC)c5C)C(CN(C)C)=C4C)c(CN(C)C)c3C.[Ga+3].[OH-] [Example 12, Gallium Hydroxy 3,8-N,N-dimethylaminomethyl deuteroporphyrin dimethyl ester] |  | 50 | 500 |  |  | Normal skin Response (1 μmol) in hrs ([1]; rat, in vivo): None |
| CCC1=C(C)c2cc3[n-]c(cc4nc(cc5[n-]c(cc1n2)c(C)c5CC)C(C)=C4CCCO)c(CCCO)c3C.[Pt+2] [Example 74, Platinum 8,13-diethyl-3,7,12,17-tetramethylporphryin-2,18-di(3′-hydroxypropyl)] | 24 | 25 | 100 |  |  |  |
| CCC1=C(CC)c2nc1cc1[nH]c(cc3nc(cc4[nH]c(n2)c(CC)c4CC)C(C)=C3CCC(=O)O)c(CCC(=O)O)c1C [M=H2 R1,R3=Et R2,R4=Et R=CO2H] |  |  |  | 0 | 450 | Normal skin Response (1 μmol) in hrs ([1]; rat, in vivo): None; accelularity in rat artery at a four hour treatment point [2]: 0% |
| Tin (IV) Dichloride Mesoporphyrin Dimethyl Ester [Example 32] | 24 | 20 | 1400 |  |  |  |
| CCC1=C(C)c2cc3[n-]c(cc4nc(cc5[n-]c(cc1n2)c(C)c5CC)C(C)=C4CCCN1CCCC1)c(CCCN1CCCC1)c3C.[Pt+2] [Example 77, Platinum 8,13-diethyl-3,7,12,17-tetramethylporphyrin-2,18-di(3-(N-pyrrolidino)propyl)] |  | 25 | 100 |  |  | Normal skin Response (1 μmol) ([1]; Table 3, time of last skin spot observed post injection, 1 μmol, 532 nm laser): 96 h |
| C=CC1=C(C)c2nc1cc1[n-]c(cc3nc(cc4[n-]c(n2)c(C)c4CCC(=O)OC)C(CCC(=O)OC)=C3C)c(C=C)c1C.[Cl-].[Ga+3] [Example 19, Gallium Chloride 5-azaprotoporphyrin IX Dimethyl Ester] |  |  |  | 55 | 400 | Normal skin Response (1 μmol) [1, 6]: 24 h |
| Gallium Chloride Rhodoporphyrin Di-methylester [Example 123] | 6 |  |  |  |  | Max % Rat Artery Acceluarity [2]: 60%; EC50 [3, 5]: 400 nM |
| CCC1=C(C)C2=Cc3c(CC)c(C)c4[n]3[Ga-2]35([Cl])[n]6c(c(C)c(CO)c6=CC6=[N+]3C(=C4)C(C)=C6CCCO)=CC1=[N+]25 [M=Ga R1=CH2OH R2=Et R3=Et R4=CH2OH R5=H] | 48 |  |  |  |  | Max % Rat Artery Acceluarity [2]: 70%; EC50 [3, 5]: 410 nM |
| CCC1=C(C)C2=[N+]3C1=Cc1c(C)c(CC)c4[n]1[Ga-2]31([Cl])[n]3c(c(C)c(CCC(=O)N(CC)CC)c3=CC3=[N+]1C(=C4)C(C)=C3CCC(=O)N(CC)CC)=C2 [Example 15, Gallium Chloride Mesoporphyrin N,N-diethylamide] | 96 | 60 | 450 |  |  |  |
| CCOC(=O)CCCCC1=C(C)C2=Cc3c(CC)c(C)c4[n]3[Al-2]35([Cl])[n]6c(c(C)c(CCCCC(=O)OCC)c6=CC1=[N+]23)=CC1=[N+]5C(=C4)C(CC)=C1C [Example 54, Aluminum Chloride 8,13-diethyl-3,7,12,17-tetramethylporphyrin-2,18-di(pentanoic acid ethyl ester)] | 24 | 0 | 4000 |  |  |  |
| CCC1=C(C)C2=[N+]3C1=Cc1c(C)c(CC)c4[n]1[Ga-2]31([Cl])[n]3c(c(C)c(CCC(=O)NCCOC)c3=CC3=[N+]1C(=C4)C(C)=C3CCC(=O)NCCOC)=C2 [Example 11, Gallium Chloride Mesoporphyrin di-(2′-methoxyethyl amide)] | 6 | 30 | 1900 |  |  |  |
| CCC1=C(C)C2=Cc3c(CC)c(C)c4[n]3[Ga-2]35([Cl])[n]6c(c(C)c(CCC(=O)O)c6=CC6=[N+]3C(=C4)C(C)=C6CCC(=O)O)=CC1=[N+]25 [M=Ga R1=Et R3=Me R4=Et R2=CO2H] | 24 | 15 | 2000 |  |  | accelularity in rat artery at a four hour treatment point [2]: 15% |
| C=CC1=C(C)C2=Nc3c(C=C)c(C)c4[n]3[Ga-2]35([Cl])[n]6c(c(C)c(CCC(=O)NC)c6=CC6=[N+]3C(=C4)C(C)=C6CCC(=O)NC)=CC1=[N+]25 [M=Ga R1,R3=Me R2,R4=V R=CONHMe] | 24 |  |  | 50 | 500 |  |
